Where a SMILES comes first, the peptide text is derived from it.

We go through 68 compounds from the pKa sets of Baltruschat and Czodrowski (2020).

The pKa is the negative logarithm of the acid dissociation constant. A high value points to a group that holds its proton tightly. Consider `O=C(O)[C@@H]1CCCN1C(=O)[C@@H]1CCC[NH2+]1`, for which the pKa (acidic group) worked out at 3.16. `[NH3+]C(Cc1ccc[nH+]c1)C(=O)O` (configuration not stated): where the note is “acidic group”, the pKa was 1.69.

`NS(=O)(=O)c1ccc(P(=O)(O)O)cc1`: the pKa (acidic group) worked out at 1.42. Turning to `CCOCCNc1cccc(C)c1`, under “basic group”, the pKa is 4.24. With `O=[Se](O)c1cccc(-c2ccccc2)c1`, for the setting “acidic group”, the pKa came to 4.87. Turning to `O=C([O-])CCc1c[nH]cn1`, the pKa (basic group) was found to be 7.55. Regarding `Cn1ccc(=N)c2ccccc21`, the pKa (basic group) came out at 12.4.

Turning to `CC1NCCc2c1[nH]c1ccc(N)cc21` (configuration not stated), the pKa (acidic group) came out at 16. The same measure, in the same setting: in the case of `Cc1cccc(C(O)C(C(=O)O)c2ccc(-c3ccccc3)cc2)c1` (configuration not stated) it was 4.17. The compound `N[C@@H](Cc1c[nH]cn1)C(=O)NCC(=O)[O-]` (H-His-Gly-OH) gave a pKa (basic group) of 7.82.

In the case of `O=C(O)CCCC(=O)NOCc1ccccc1`, the pKa (acidic group) worked out at 4.7. Consider `C1CCN(CCN2CCCCC2)CC1`, for which the pKa (basic group) amounted to 9.43. On to `CN(C)CCCCCCCNC(=O)/C=N/[O-]`, for which the pKa (basic group) was 10.5.

As to `Cc1cc(C)n(-c2cccc[nH+]2)n1`, the pKa (basic group) is -2.4.

For the setting “basic group”, `Cc1ccc2c(c1)NCC[NH2+]2` yielded a pKa of 2.03.

`CCCNCC(=O)[O-]` yielded a pKa (basic group) of 10.2. On the same count and under the same terms, in the case of `NCC(=O)N1CCC[C@H]1C(=O)[O-]` (H-Gly-Pro-OH) it was 8.49. As to `CCc1nsc(O)n1`, for the setting “acidic group”, the pKa was found to be 6.89. Under “basic group”, `CC1(C)S[C@H]2C(C(=O)[O-])[NH+]=C(CCCC(N)C(=O)[O-])N2C1C(=O)[O-]` (some centres not stated) gave a pKa of 7.6.

The compound `CC1NCCCN1` came in with a pKa (basic group) of 9.09. The same measure, in the same setting: in the case of `NCc1cc(N)cc(Cl)c1` it was 9.54. `CC(C)=CCC(=O)O` returned a pKa (acidic group) of 4.6. Under “basic group”, `C=CCN(CC(C)O)CC(C)O` (configuration not stated) displayed a pKa of 8.2. Under “acidic group”, `CNc1nnn[nH]1` came in with a pKa of 6.06. In the case of `CC(C)(C)C(=O)C(=O)O`, under “acidic group”, the pKa turned out to be 2.3. As to `CC[NH+](CC)CCN`, the pKa (basic group) was 6.76.

As to `N[C@@H]1C[C@@H]1[NH3+]`, for the setting “basic group”, the pKa was 4.2. `[O-]c1ccnc([S-])n1` displayed a pKa (basic group) of 12.7. `O=C(O)C#CCl` displayed a pKa (acidic group) of 1.89. Turning to `Cc1ccc2c(ccn2C)c1`, the pKa (basic group) was -2.15. The compound `Oc1cc[nH+]c2cccnc12` yielded a pKa (acidic group) of 2.85. Regarding `O=Cc1cccc(B(O)O)c1`, the pKa (acidic group) worked out at 7.8. The compound `Nc1ccc2c(c1)-c1ccccc1C2` had a pKa (basic group) of 4.68. `CCN(CC)CCCC(C)Nc1ccnc2ccc(OC)cc12` (configuration not stated): the pKa (basic group) turned out to be 10.2.

Regarding `CCN(CC)CCCC(C)Nc1ccnc2ccccc12` (configuration not stated), the pKa (basic group) is 10.2. Compound `Cc1c2ccncc2cc2c1[nH]c1cc[nH+]cc12` gave a pKa (basic group) of 5.3. As for `Cc1c[nH+]c(C)cn1`, where the note is “basic group”, the pKa is -4.42. Compound `c1ccc(-c2cnc3c(ccc4cccnc43)c2)cc1` returned a pKa (basic group) of 4.82. As to `Oc1cccc2cnccc12`, the pKa reads like this: (acidic group) 8.45; (basic group) 5.4. `CC(CC(C#N)(c1ccccc1)c1ccccc1)N1CCCCC1` (configuration not stated) showed a pKa (basic group) of 7.73. In turn, `CCOC(=O)COc1ccc(C(=O)c2ccc(O)c(C[NH3+])c2)c(Cl)c1Cl` gave a pKa (acidic group) of 6.38. For the setting “acidic group”, `O=C(O)c1[nH]c[nH+]c1C(=O)[O-]` registered a pKa of 4.27. For `CC(C)(C)C(=O)CC(=O)C(C)(C)C`, the pKa (acidic group) worked out at 11.8. For the compound `CCOCCn1c(CN2CCC[NH+](CCCCn3cc(C(=O)[O-])cn3)CC2)nc2ccccc21`, the pKa (basic group) was found to be 4.8. In the case of `COc1ccc2c(c1)[nH]c1c(C)nccc12`, the pKa reads like this: (acidic group) 13.5; (basic group) 7.73. As to `Brc1ccc2c(c1)CCN2`, the pKa (basic group) stood at 3.7. `C[n+]1cccc(S)c1` registered a pKa (acidic group) of 2.27. For the compound `O=C(NO)c1ccncc1`, the pKa (acidic group) stood at 7.82. As to `c1ccc(-c2cccc(-c3cccc[nH+]3)n2)nc1`, the pKa (basic group) is 3.28. The compound `Nc1c2ccccc2nc2c(N)cccc12` came in with a pKa (basic group) of 9.3. For the compound `Nc1nc([S-])c2[nH]cnc2n1`, the pKa (acidic group) is 11.6 and the pKa (basic group) turned out to be 8.2. For the setting “acidic group”, `C=CCc1c(C)nn(C)c1O` displayed a pKa of 10.5. With `O=C(CCN1CCOCC1)c1cccc(Br)c1`, the pKa (basic group) came out at 6.8. Still for that read-out and setting: with `CC(C)CNc1ccccc1` the figure was 4.84. On to `O=Cc1ccc(O)cc1Cl`, for which the pKa (acidic group) worked out at 6.6. In turn, `Nc1ccc(Cl)cc1` showed a pKa (basic group) of 3.96. For the setting “acidic group”, `O=C(O)Cc1cccs1` gave a pKa of 3.85. Consider `O=C(O)c1cc2ccccc2s1`, for which the pKa (acidic group) was 3.1. As for `Cc1ncc2c(c1O)C(O)OC2` (configuration not stated), the pKa runs as follows: (acidic group) 8.75; (basic group) 4.3.

For `CCOC(=O)C(Cc1ccc([N+](=O)[O-])cc1)C(C)=O` (configuration not stated), where the note is “acidic group”, the pKa was 11.1. Take `S=CNc1ccccc1Cl`: the pKa (acidic group) was determined as 10. Compound `O=CCCCC(=O)O` had a pKa (acidic group) of 5.02. Regarding `COc1ccc(-c2c(O)c2=O)cc1`, the pKa (acidic group) is 2.33. As for `CCCCCCCCCCCCCCCCN(CC(C)O)CC(C)O` (configuration not stated), under “basic group”, the pKa worked out at 9.19.

With `COCCNc1ccccc1`, the pKa (basic group) amounted to 4.05.

On to `CNC(CO)CO`, for which the pKa (basic group) came to 9.12. Take `Cc1ccc(C(=N)c2ccccc2)c(C)c1`: the pKa (basic group) stood at 6.79. `Cc1cc[nH]n1` gave a pKa (basic group) of 3.66.
